Paper PMC4601594, “An active site–tail interaction in the structure of hexahistidine-tagged Thermoplasma acidophilum citrate synthase” (Acta Crystallographica. Section F, Structural Biology …, 2015)

Legend:
[1] = biological target: T1, citrate synthase (TpCSH6) (Thermoplasma acidophilum, UniProt P21553); experiment: fluorescence titration of the TpCSH6–OAA complex (CitMX formation); also competitive inhibition versus AcCoA, Ki =[…]; assay type: binding
T1 construct: gene gltA; full-length TpCS (lacking N-terminal Met) with C-terminal His6 tag (TpCSH6)
T1 sequence (P21553 2-385): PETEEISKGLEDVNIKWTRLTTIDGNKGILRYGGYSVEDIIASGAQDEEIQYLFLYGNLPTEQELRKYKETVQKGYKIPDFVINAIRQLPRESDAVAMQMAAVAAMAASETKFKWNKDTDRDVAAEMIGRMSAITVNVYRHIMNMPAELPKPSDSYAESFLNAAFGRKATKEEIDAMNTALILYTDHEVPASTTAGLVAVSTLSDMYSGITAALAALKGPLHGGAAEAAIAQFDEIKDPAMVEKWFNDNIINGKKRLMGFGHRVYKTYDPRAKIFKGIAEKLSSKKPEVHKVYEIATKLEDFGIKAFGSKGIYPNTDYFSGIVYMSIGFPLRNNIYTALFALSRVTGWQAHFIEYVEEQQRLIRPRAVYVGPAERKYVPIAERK

[2] = biological target: T2, citrate synthase (TpCSH6-H222Q) (Thermoplasma acidophilum, UniProt P21553, H223Q); experiment: fluorescence titration (Trp348 quenching); assay type: binding
T2 construct: gene gltA; full-length TpCS with C-terminal His6 tag, H222Q mutant

[3] = biological target: T1, citrate synthase (TpCSH6); experiment: fluorescence titration (Trp348 quenching); assay type: binding
[4] = substrate: CC(=O)SCCNC(=O)CCNC(=O)[C@H](O)C(C)(C)COP(=O)(O)OP(=O)(O)OC[C@H]1O[C@@H](n2cnc3c(N)ncnc32)[C@H](O)[C@@H]1OP(=O)(O)O; experiment: purified protein; conditions: oxaloacetate (co-substrate) AcCoA binding site (His222, Asp317)

T2 sequence (P21553 2-385 H223Q): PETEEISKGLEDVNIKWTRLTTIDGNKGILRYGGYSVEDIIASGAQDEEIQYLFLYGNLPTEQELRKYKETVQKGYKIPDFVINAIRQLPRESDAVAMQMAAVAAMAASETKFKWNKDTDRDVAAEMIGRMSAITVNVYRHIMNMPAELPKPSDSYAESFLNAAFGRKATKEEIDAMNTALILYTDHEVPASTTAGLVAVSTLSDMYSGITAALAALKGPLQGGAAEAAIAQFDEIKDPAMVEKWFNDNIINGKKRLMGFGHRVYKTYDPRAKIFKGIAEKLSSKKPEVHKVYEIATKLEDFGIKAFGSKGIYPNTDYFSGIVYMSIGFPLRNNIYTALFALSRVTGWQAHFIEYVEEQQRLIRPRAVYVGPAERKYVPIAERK

CC(=O)CCCNC(=O)CCNC(=O)[C@H](O)C(C)(C)COP(=O)(O)OP(=O)(O)OC[C@H]1O[C@@H](n2cnc3c(N)ncnc32)[C@H](O)[C@@H]1OP(=O)(O)O [AcMX, dethiaacetyl-CoA]
Kd [1]: 1500 nM

O=C(O)CC(=O)C(=O)O [OAA, oxaloacetate]
Kd [2]: 19000 nM | Kd [3]: 760 nM

B1: citrate synthase (TpCSH6) (Thermoplasma acidophilum DSM 1728) (protein)
chain: PETEEISKGLEDVNIKWTRLTTIDGNKGILRYGGYSVEDIIASGAQDEEIQYLFLYGNLPTEQELRKYKETVQKGYKIPDFVINAIRQLPRESDAVAMQMAAVAAMAASETKFKWNKDTDRDVAAEMIGRMSAITVNVYRHIMNMPAELPKPSDSYAESFLNAAFGRKATKEEIDAMNTALILYTDHEVPASTTAGLVAVSTLSDMYSGITAALAALKGPLHGGAAEAAIAQFDEIKDPAMVEKWFNDNIINGKKRLMGFGHRVYKTYDPRAKIFKGIAEKLSSKKPEVHKVYEIATKLEDFGIKAFGSKGIYPNTDYFSGIVYMSIGFPLRNNIYTALFALSRVTGWQAHFIEYVEEQQRLIRPRAVYVGPAERKYVPIAERK
Km [4]: 3.0 µM
